The values that follow are results of earlier work, collected in US20260191683A1, “SUSTAINED RELEASE OCULAR IMPLANTS” (University of Tennessee Research Foundation, priority 2023, published 2026).

The conditions of the series: high permeability.

With `CC(C)C[C@H](CN)CC(=O)O` [PRG, pregabalin], the BCS class entry is “BCS class I drug”.
